# Data reported in patent US5762960A (Trustees of Tufts College, priority 1996, dated 1998).
# Like-named read-outs stand apart in the source and are kept apart here.
# What was measured:
# dopamine uptake = details: in words, footnote 5 of Table 6; cited from earlier work
# [1] = cited from earlier work
# norepinephrine uptake = test system: norepinephrine uptake; parameters: Amine Uptakes Blocking Activity Norepinephrine: key to the marks not given beside the values; details: cited from earlier work; for Amine Uptakes Blocking Activity Norepinephrine: Table 3; for Interaction and blocking activity at the norepinephrine receptor site: in words, text commenting on Table 6
# [2] = test system: canine affective aggression behavior; test: Case histories: treatment of household dogs exhibiting canine affective aggression
# Source text: The clinical diagnosis was affective aggression behavior which was dominance aggression and/fear aggression.
# dopamine receptors = details: in words, footnote 3 and text on Table 6; cited from earlier work
# [3] = Case 4, Cocker Spaniel, orally 25 mg daily, after two months
# [4] = Table 6, parent compound plus active metabolite
compound,measurement,setting,value
"CC(NC(C)(C)C)C(=O)c1cccc(Cl)c1 (stereo not drawn) [Bupropion, bupropion]",Dopamine uptake inhibition,dopamine uptake,Inhibits dopamine uptake
same,Half-life,[1]; Table 6,8 to 24 h
same,Time to reach steady state,[1]; Table 6,1.5 to 5 days
"CN(C)CCC=C1c2ccccc2COc2ccccc21 [Doxepin, doxepin]",Half-life,"[1]; human, in vivo",8 to 24 h
same,Time to reach steady state,[1]; in vivo,2 to 8 days
"CN(C)CCCN1c2ccccc2CCc2ccc(Cl)cc21 [Clomipramine, 3-chloro-10,11-dihydro-N,N-dimethyl-5H-benzo-[b,f]azepine-5-propamine]",Amine Uptakes Blocking Activity Norepinephrine,norepinephrine uptake,++
same,Interaction and blocking activity at the norepinephrine receptor site,norepinephrine uptake,modest or slight
same,Owner-noted change in aggressive behavior,"[2]; Case 1, Australian Shepherd, 25 mg daily, after one week's treatment",slight improvement
same,Improvement in aggression behavior,"[2]; Case 1, Australian Shepherd, 25 mg daily, after several weeks' treatment",maintained
same,Owner-rated improvement of behavior,"[2]; Case 1, Australian Shepherd, 25 mg daily, three weeks after start",50-75%
same,Owner rating of behavior,"[2]; Case 2, Lhasa Apso, dominance and territorial aggression, approx. 1 mg/kg twice a day for one week then approx. […] twice a day, after two weeks",slightly improved
same,Persistence of improvement in aggressive behavior,"[2]; Case 2, Lhasa Apso, through the eight weeks following termination of administration",sustained
same,Improvement in behavior,"[2]; Case 3, German Shepherd, fear and territorial aggression, once a day slightly less than 1 mg/kg, after two weeks",Moderate improvement
same,Improvement in behavior,"[2]; Case 3, German Shepherd, once a day slightly less than 1 mg/kg, eight weeks after initiation",moderate improvement
same,Owner-rated improvement in behavior,"[2]; Case 4, Cocker Spaniel, dominance/fear aggression, orally 25 mg daily, after one week",25-50%
same,Owner-reported behavior,"[2]; Case 4, Cocker Spaniel, orally 25 mg daily, after one month",much calmer on the street
same,Improvement in behavior,[2]; [3],50-75%
same,Owner-reported behavior,[2]; [3],essentially non-aggressive
same,Owner-reported behavior,"[2]; Case 4, Cocker Spaniel, orally 25 mg daily, after two weeks",fine in the house
same,Overall effectiveness for treatment of interspecific affective aggression in dogs,"[2]; conclusion from the four case histories, no behavior modification therapy",very effective
same,Therapeutic Plasma Level,[1]; in vivo,80 to 100 ng/mL
same,Therapeutic plasma level,[1]; in vivo,80 to 100 ng/mL
same,Time to Reach Steady State,[1]; in vivo,7 to 14 days
same,Time to reach steady state,[1]; in vivo,7 to 14 days
"CC(CN(C)C)CN1c2ccccc2CCc2ccccc21 (stereo not drawn) [Trimipramine, trimipramine]",Half-life,[1]; Table 6,7 to 30 h
same,Time to reach steady state,[1]; in vivo,2 to 6 days
"CN[C@H]1CC[C@@H](c2ccc(Cl)c(Cl)c2)c2ccccc21 [Sertraline, sertraline]",Time to reach steady state,[1]; in vivo,7 days
"Clc1ccc2c(c1)C(N1CCNCC1)=Nc1ccccc1O2 [Amoxapine, amoxapine]",Dopamine receptor blockade / interaction,dopamine receptors,blocks dopamine receptors
same,Half-life,"[1]; human, in vivo",8 h
same,Therapeutic plasma level,[1]; in vivo,200 to 500 ng/mL
same,Time to reach steady state,[1]; in vivo,2 to 7 days
"CNCCC=C1c2ccccc2CCc2ccccc21 [Nortriptyline, 3-(10,11-Dihydro-5H-dibenzo[a,d]cyclohepten-5-ylidene)-N-methyl-1-propamine]",Half-life,[1]; Table 3,18 to 44 h
same,Time to Reach Steady State,[1]; Table 3,4 to 19 days
same,Half-life,[1]; Table 6,18 to 44 h
same,Time to reach steady state,[1]; Table 6,4 to 19 days
CN(C)CCC=C1c2ccccc2CCc2ccccc21 [Amitriptyline],Amine Uptakes Blocking Activity Norepinephrine,norepinephrine uptake,++
same,Interaction and blocking activity at the norepinephrine receptor site,norepinephrine uptake,modest or slight
same,Half-life,[1]; Table 3,31 to 46 h
same,Therapeutic Plasma Level,"[1]; Table 3, marked ^1, footnote printed only under Table 6: parent compound plus active metabolite",110 to 250 ng/mL
same,Half-life,[1]; Table 6,31 to 46 h
same,Therapeutic plasma level,[1]; [4],110 to 250 ng/mL
same,Time to Reach Steady State,[1]; in vivo,4 to 10 days
same,Time to reach steady state,[1]; in vivo,4 to 10 days
"CNCCCN1c2ccccc2CCc2ccccc21 [Desipramine, desipramine]",Half-life,"[1]; human, in vivo",12 to 24 h
same,Therapeutic plasma level,[1]; in vivo,125 to 300 ng/mL
same,Time to reach steady state,[1]; in vivo,2 to 11 days
"CNCCC(Oc1ccc(C(F)(F)F)cc1)c1ccccc1 (stereo not drawn) [Fluoxetine, fluoxetine]",Time to reach steady state,[1]; in vivo,2-4 weeks
"CNCCCC12CCC(c3ccccc31)c1ccccc12 [Maprotiline, maprotiline]",Time to reach steady state,[1]; Table 6,6 to 10 days
same,Therapeutic plasma level,[1]; [4],200 to 300 ng/mL
same,Half-life,"[1]; human, in vivo",21 to 25 h
CC(C)NCC(O)COc1cccc2ccccc12 (stereo not drawn) [inclerol],Effect on aggressive behavior,"[2]; Case 1, Australian Shepherd, 14-year old castrated male, beta-blocker for one week",only increased his aggressive behavior
"Fc1ccc([C@@H]2CCNC[C@H]2COc2ccc3c(c2)OCO3)cc1 [Paroxetine, paroxetine]",Half-life,[1]; Table 6,10 to 24 h
same,Time to reach steady state,[1]; in vivo,7 to 14 days
"CN(C)CCCN1c2ccccc2CCc2ccccc21 [Imipramine, imipramine]",Time to reach steady state,[1]; in vivo,2 to 5 days
"CNCCCC1c2ccccc2C=Cc2ccccc21 [Protriptyline, protriptyline]",Half-life,"[1]; human, in vivo",67 to 89 h
same,Therapeutic plasma level,[1]; in vivo,100 to 200 ng/mL
same,Time to reach steady state,[1]; in vivo,14 to 19 days
